In ChEMBL document CHEMBL1145266, “Design, synthesis, and biological activity of potent and selective inhibitors of mast cell tryptase” (Bioorg Med Chem Lett, 2005) one finds Ki, bioavailability and IC50 data, which are given here for 26 compounds.

The target in series [1] is T1, Tryptase beta-1 (Homo sapiens, UniProt Q15661). In words: In vitro inhibitory activity against tryptase.
The nature of series [2]: Bioavailability using combiPK assay in rats at a dose of 2 mg/kg administered orally. In kind it is ADME, organism-based. To be noted: rat, in vivo, po, read-out: Bioavailabiility.
Series [3] in a line: Bioavailability in rat using combiPK (dose 1 mg/kg i.v.). In kind it is ADME, organism-based. To be noted: in vivo, iv.
Series [4] can be described thus: Bioavailability in rat using combiPK (dose of 2 mg/kg p.o.). It is filed as ADME, organism-based. The note with it: in vivo, po.
Series [5] can be described thus: Bioavailability using combiPK assay in rats at a dose of 1 mg/kg administered intravenously. It is filed as ADME, organism-based. The note with it: rat, in vivo, iv, read-out: Bioavailabiility.
The nature of series [6]: Bioavailability in rat (combiPK assay) (dose 2 mg/kg p.o.). It is filed as ADME, organism-based. The note with it: in vivo, po.
Series [7] in a line: Bioavailability in rat using combiPK assay (dose 1 mg/kg i.v.). The note with it: in vivo, iv. In kind it is ADME, organism-based.
Series [8] in a line: Inhibitory concentration against Thrombin was determined.
The target of series [9] is T1, Tryptase beta-1. In words: Inhibition concentration against beta tryptase was determined.
The target in series [10] is T1, Tryptase beta-1. In words: Inhibitory concentration against alpha tryptase was determined.
A short description of series [11]: Inhibitory concentration against Factor Xa was determined.
Series [12] can be described thus: Inhibitory concentration against Chymase was determined.
Series [13] in a line: Inhibitory concentration against Trypsin was determined.

T1 sequence (Q15661 whole entry): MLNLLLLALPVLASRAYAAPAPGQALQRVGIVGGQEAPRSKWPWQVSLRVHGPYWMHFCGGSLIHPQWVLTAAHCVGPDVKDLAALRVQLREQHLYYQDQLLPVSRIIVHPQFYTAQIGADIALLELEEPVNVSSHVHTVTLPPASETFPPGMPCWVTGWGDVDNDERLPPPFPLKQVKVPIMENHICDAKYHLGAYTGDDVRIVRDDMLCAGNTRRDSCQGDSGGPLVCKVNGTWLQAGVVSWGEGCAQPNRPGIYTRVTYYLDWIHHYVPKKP

`CCCCCCn1cc(C(=O)N2CCC(c3cccc(CN)c3)CC2)c2ccccc21` registered a Ki at Tryptase beta-1 [1] of 125 nM.
Same read-out and setting: the same measure for `NCc1cccc(C2CCN(C(=O)c3cn(C(=O)c4cccs4)c4ccccc34)CC2)c1`: 246 nM; for `CCCn1cc(C(=O)N2CCC(c3cccc(CN)c3)CC2)c2ccccc21`: 185 nM.
On to `NCc1cccc(C2CCN(C(=O)c3c[nH]c4ccccc34)CC2)c1.O=C(O)C(F)(F)F`, for which the affinity at Tryptase beta-1 [1] corresponds to a Ki of 290 nM. The bioavailability in series [2] and in [3] was 22% throughout.
Regarding `NCc1cccc(C2CCN(C(=O)c3cn(CC4CCCCC4)c4ccccc34)CC2)c1`, on Tryptase beta-1 [1], the Ki was determined as 497 nM.
The same measure, in the same setting: then `CS(=O)(=O)n1cc(C(=O)N2CCC(c3cccc(CN)c3)CC2)c2ccccc21`, with 162 nM; and `CC(C)n1cc(C(=O)N2CCC(c3cccc(CN)c3)CC2)c2ccccc21`, with 310 nM.
In the case of `Cc1ccc2c(C(=O)N3CCC(c4cccc(CN)c4)CC3)c[nH]c2c1`, the Ki on Tryptase beta-1 [1] was above 2000 nM.
On Tryptase beta-1 [1], `Cc1cccc2c(C(=O)N3CCC(c4cccc(CN)c4)CC3)c[nH]c12.O=C(O)C(F)(F)F` displayed a Ki of 61 nM. Also, the bioavailability in series [4] and in [5] was 19% throughout.
At Tryptase beta-1 [1], `NCc1cccc(C2CCN(C(=O)c3cn(S(=O)(=O)c4ccccc4)c4ccccc34)CC2)c1.O=C(O)C(F)(F)F` displayed a Ki of 128 nM. Besides, the bioavailability in [4] and in [3] was 17% throughout.
As for `CCCn1cc(C(=O)N2CCC(c3cccc(CN)c3)CC2)c2cccc(C)c21`, affinity on Tryptase beta-1 [1] was put at a Ki of 41 nM. In other words, the double-digit nanomolar range.
The same measure, in the same setting: the same measure for `COCCn1cc(C(=O)N2CCC(c3cccc(CN)c3)CC2)c2cccc(C)c21`: 32 nM.
On Tryptase beta-1 [1], `CCn1cc(C(=O)N2CCC(c3cccc(CN)c3)CC2)c2cccc(C)c21.O=C(O)C(F)(F)F` displayed a Ki of 41 nM. The bioavailability in series [6] and in series [7] was 26% in each case.
In the case of `Cn1cc(C(=O)N2CCC(c3cccc(CN)c3)CC2)c2ccccc21`, at Tryptase beta-1 [1], the Ki turned out to be 155 nM. In other words, the sub-micromolar range.
In turn, `CCCCn1cc(C(=O)N2CCC(c3cccc(CN)c3)CC2)c2ccccc21.O=C(O)C(F)(F)F` returned a Ki at Tryptase beta-1 [1] of 49 nM. Moreover, the bioavailability in series [6] and in [7] was 9.3% each time.
At Tryptase beta-1 [1], `NCc1cccc(C2CCN(C(=O)c3c[nH]c4c(F)cccc34)CC2)c1` returned a Ki of 368 nM.
For the compound `CCn1cc(C(=O)N2CCC(c3cccc(CN)c3)CC2)c2ccccc21.O=C(O)C(F)(F)F`, on Tryptase beta-1 [1], the Ki came to 124 nM. Further, the bioavailability in [6] and in series [7] was 11% each time.
In turn, `NCc1cccc(C2CCN(C(=O)c3cn(-c4cccnc4)c4ccccc34)CC2)c1` returned an inhibition constant Ki at Tryptase beta-1 [1] of 197 nM.
Compound `CC(=O)n1cc(C(=O)N2CCC(c3cccc(CN)c3)CC2)c2ccccc21` showed a Ki at Tryptase beta-1 [1] of 240 nM.
Still for that read-out and setting: the same measure for `COCCn1cc(C(=O)N2CCC(c3cccc(CN)c3)CC2)c2ccccc21`: 57 nM; for `CC(C)Cn1cc(C(=O)N2CCC(c3cccc(CN)c3)CC2)c2ccccc21`: 116 nM; for `NCc1cccc(C2CCN(C(=O)c3cn(-c4nccs4)c4ccccc34)CC2)c1`: 373 nM.
On the same count and under the same terms, the same measure for `Cc1cccc2[nH]cc(C(=O)N3CCC(c4cccc(CN)c4)CC3)c12`: above 2000 nM; for `Cc1ccc2[nH]cc(C(=O)N3CCC(c4cccc(CN)c4)CC3)c2c1`: 101 nM.
Compound `CCCCn1cc(C(=O)N2CCC(c3cccc(CN)c3)CC2)c2cccc(C)c21.O=C(O)C(F)(F)F` returned a Ki at Tryptase beta-1 [1] of 68 nM. The IC50 in [8] is above 10000 nM; against Tryptase beta-1 [9], 68 nM; against Tryptase beta-1 [10] it was 3690 nM; in [11] it was above 10000 nM; in series [12] it was above 10000 nM; in series [13], above 10000 nM. In series [7], this compound displayed a bioavailability of 33%.
The compound `NCc1cccc(C2CCN(C(=O)c3cn(CC4CC4)c4ccccc34)CC2)c1` displayed a Ki at Tryptase beta-1 [1] of 141 nM.

The Ki is a dissociation constant, usually derived from enzyme kinetics or from competition with a known ligand. Read a low Ki as higher affinity. Broadly, the IC50 is the point on the concentration scale where inhibition reaches its midpoint. High values mean lower potency, low ones higher potency.
